{"source": "patent US20070225246A1", "about": "“O-acetyl-ADP-ribose non-hydrolyzable analogs” (priority 2006, published 2007)", "key": {"YSA1 [1]": {"molecular_target": "T1, YSA1 (Saccharomyces cerevisiae, UniProt Q01976)", "T1 sequence (Q01976 1-231)": "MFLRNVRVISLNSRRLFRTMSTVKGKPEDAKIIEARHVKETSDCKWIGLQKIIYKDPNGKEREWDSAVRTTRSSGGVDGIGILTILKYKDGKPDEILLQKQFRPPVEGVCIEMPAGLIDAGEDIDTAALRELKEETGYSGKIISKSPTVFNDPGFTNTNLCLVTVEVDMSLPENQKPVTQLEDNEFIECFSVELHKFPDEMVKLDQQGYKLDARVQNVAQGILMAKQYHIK", "assay": "Nudix hydrolase hydrolysis by YSA1 (Michaelis-Menten)", "type": "biochemical, yeast", "settings": "substrate 5-300 μM, YSA1 10 ng", "experimental": "(§1) The Nudix hydrolases, mNudT5 and YSA1, and NudT9 are a family of ADPr metabolizing enzymes. […] Reaction mixtures containing ADPr (5-300 μM) were incubated with NudT9 (100 ng) or YSA1 (10 ng). Michaelis-Menten plots were generated for the hydrolysis of ADPr by NudT9 and YSA1. […] The hydrolysis of 2′- and 3′-NAADPr is evaluated using a protocol similar to that described by Rafty."}, "human macroH2A1.1 domain [2]": {"molecular_target": "T2, human macroH2A1.1 domain (Homo sapiens, UniProt O75367)", "T2 sequence (O75367 184-367 limits assumed)": "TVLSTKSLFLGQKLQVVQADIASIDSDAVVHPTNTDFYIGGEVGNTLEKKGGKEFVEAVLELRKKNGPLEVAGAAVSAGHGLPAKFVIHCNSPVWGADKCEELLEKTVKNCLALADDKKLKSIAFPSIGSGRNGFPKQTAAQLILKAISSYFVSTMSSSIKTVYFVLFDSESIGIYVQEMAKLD", "assay": "MacroH2A1.1 binding (calorimetry)", "settings": "method similar to Kustatcher", "source_text": "(§2) MacroH2A1.1 is an atypical histone variant associated with heterochromatin and implicated in transcriptional repression. […] The splice-variant MacroH2A1.2 was also studied, but no binding of ADPr was observed. The binding of 2′- and 3′-NAADPr may be evaluated using a protocol similar to that described by Kustatcher."}, "NudT9 [3]": {"molecular_target": "T3, NudT9 (Homo sapiens, UniProt Q9BW91)", "T3 sequence (Q9BW91 47-350)": "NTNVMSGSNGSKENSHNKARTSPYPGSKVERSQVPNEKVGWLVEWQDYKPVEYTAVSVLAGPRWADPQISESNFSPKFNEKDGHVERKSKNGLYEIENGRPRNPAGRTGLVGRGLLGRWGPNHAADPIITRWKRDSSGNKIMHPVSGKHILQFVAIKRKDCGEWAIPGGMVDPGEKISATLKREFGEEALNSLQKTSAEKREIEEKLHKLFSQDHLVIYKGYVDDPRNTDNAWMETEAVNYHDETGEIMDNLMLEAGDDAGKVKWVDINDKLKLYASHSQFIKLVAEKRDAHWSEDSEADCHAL", "assay": "Nudix hydrolase hydrolysis by NudT9 (Michaelis-Menten)", "type": "biochemical", "settings": "substrate 5-300 μM, NudT9 100 ng", "experimental": "as §1"}, "[4]": {"molecular_target": "splice-variant MacroH2A1.2 (Homo sapiens, UniProt O75367)", "sequence (O75367 1-372 isoform O75367-1)": "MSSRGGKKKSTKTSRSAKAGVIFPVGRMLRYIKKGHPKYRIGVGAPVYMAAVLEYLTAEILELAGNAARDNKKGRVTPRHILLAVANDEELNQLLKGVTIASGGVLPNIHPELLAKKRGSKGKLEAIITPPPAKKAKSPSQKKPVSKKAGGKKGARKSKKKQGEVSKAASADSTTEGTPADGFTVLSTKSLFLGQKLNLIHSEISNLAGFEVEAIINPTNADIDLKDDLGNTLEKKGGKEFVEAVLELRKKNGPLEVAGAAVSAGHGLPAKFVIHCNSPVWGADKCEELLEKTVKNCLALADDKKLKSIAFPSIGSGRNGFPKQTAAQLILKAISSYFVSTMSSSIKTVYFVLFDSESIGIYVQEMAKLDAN", "assay": "MacroH2A1.2 binding (calorimetry)", "settings": "method similar to Kustatcher", "source_text": "as §2"}, "[5]": {"assay": "HPLC stability studies at physiological temperature and pH", "type": "physicochemical", "settings": "500 μM in 50 mM Tris pH 7.5, 1 mM DTT, 37° C.", "experimental": "To validate the installation of an N-acetyl as a non-hydrolyzable substitution, the stabilities of both 2′- and 3′-NAADPr were evaluated at physiological temperature and pH using conditions previously described (Borra et al., 2002, J. Biol. Chem. 277: 12632-12641). […] HPLC analysis of both 2′- and 3′-NAADPr using exact conditions indicated negligable decomposition (<1%) over 3 days and confirmed the stability of the acetyl funcitonality to spontaneous hydrolysis at physiological pH.\nReactions were carried out with both analogs (final concentration of 500 μM) in 50 mM Tris (pH 7.5 at 37° C.) containing 1 mM DTT. Samples were incubated at 37° C. over 3 days and four time points were collected (0, 24, 48, and 72 h). Each sample was quenched with H2O containing 0.05% TFA and analyzed by HPLC (analytical C18) using the method described in general procedures. Each trace was integrated (Shimadzu EZStart version 7.2.1 SP1) to determine peak area and analog percentage is shown in the following table 1. Both 2′- and 3′-NAADPr contained trace impurities at 12.9 and 12.5 min respectively and contributed to the observed degradation products visible at 23.3 min in each study."}, "YSA1 [6]": {"molecular_target": "T1, YSA1", "settings": "in vitro (Rafty et al., 2002); cited from earlier work"}, "NudT9 [7]": {"molecular_target": "T3, NudT9", "settings": "in vitro (Rafty et al., 2002); cited from earlier work"}, "human macroH2A1.1 domain [8]": {"molecular_target": "T2, human macroH2A1.1 domain", "settings": "calorimetry, Kustatcher et al., 2005; cited from earlier work"}, "[9]": {"settings": "within 3 h, physiological temperature and pH (Borra et al., 2002); cited from earlier work"}, "mNudT5": {"molecular_target": "mNudT5 (Mus musculus, UniProt Q9JKX6)", "sequence (Q9JKX6 whole entry)": "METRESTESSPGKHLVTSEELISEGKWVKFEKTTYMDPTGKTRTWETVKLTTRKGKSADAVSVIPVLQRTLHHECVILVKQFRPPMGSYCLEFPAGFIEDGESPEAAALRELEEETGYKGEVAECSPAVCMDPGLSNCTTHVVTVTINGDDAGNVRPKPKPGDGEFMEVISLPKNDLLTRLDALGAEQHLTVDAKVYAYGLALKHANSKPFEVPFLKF", "settings": "in vitro (Rafty et al., 2002); cited from earlier work"}}, "note": "Read-outs that look alike come from different tables or passages of the source."}
{"molecule": "Nc1ncnc2c1ncn2[C@@H]1O[C@H](COP(=O)(O)OP(=O)(O)OC[C@H]2OC(O)[C@H](O)[C@@H]2O)[C@@H](O)[C@H]1O", "note": "(stereo partly drawn) [ADPr, ADP-ribose]", "values": [{"measurement": "Km", "setting": "YSA1 [1]", "result": 39.9, "unit": "µM"}, {"measurement": "kcat", "setting": "YSA1 [1]", "result": 6.5, "unit": "s⁻¹"}, {"measurement": "Kd", "setting": "human macroH2A1.1 domain [2]", "result": 2400, "unit": "nM"}, {"measurement": "enthalpy", "setting": "human macroH2A1.1 domain [2]", "result": -15.4, "unit": "kcal/mol"}, {"measurement": "Km", "setting": "NudT9 [3]", "result": 23.9, "unit": "µM"}, {"measurement": "kcat", "setting": "NudT9 [3]", "result": 9.3, "unit": "s⁻¹"}, {"measurement": "binding", "setting": "[4]", "result": "no binding"}]}
{"molecule": "CC(=O)NC1C(O)O[C@H](COP(=O)(O)OP(=O)(O)OC[C@H]2O[C@@H](n3cnc4c(N)ncnc43)C(O)C2O)[C@@H]1O", "note": "(stereo partly drawn) [2′-NAADPr, 2′-N-Acetyl-ADP-ribose]", "values": [{"measurement": "analog percentage (HPLC peak area)", "setting": "[5]; 0 h", "result": 98.7, "unit": "%"}, {"measurement": "analog percentage (HPLC peak area)", "setting": "[5]; 24 h", "result": 98.7, "unit": "%"}, {"measurement": "analog percentage (HPLC peak area)", "setting": "[5]; 48 h", "result": 98.2, "unit": "%"}, {"measurement": "analog percentage (HPLC peak area)", "setting": "[5]; 72 h", "result": 98.3, "unit": "%"}]}
{"molecule": "3′-N-Acetyl-ADP-ribose [3′-NAADPr]", "values": [{"measurement": "analog percentage (HPLC peak area)", "setting": "[5]; 0 h", "result": 95.7, "unit": "%"}, {"measurement": "analog percentage (HPLC peak area)", "setting": "[5]; 24 h", "result": 98.2, "unit": "%"}, {"measurement": "analog percentage (HPLC peak area)", "setting": "[5]; 48 h", "result": 98.0, "unit": "%"}, {"measurement": "analog percentage (HPLC peak area)", "setting": "[5]; 72 h", "result": 98.0, "unit": "%"}]}
{"molecule": "O-Acetyl-ADP-ribose [OAADPr]", "values": [{"measurement": "hydrolysis to AMP and acetylated ribose 5′-phosphate", "setting": "YSA1 [6]", "result": "efficiently hydrolyze"}, {"measurement": "hydrolysis efficiency, less efficient as compared to ADPr", "setting": "NudT9 [7]", "result": 500, "unit": "fold"}, {"measurement": "Kd", "setting": "human macroH2A1.1 domain [8]", "result": "~2000", "unit": "nM"}, {"measurement": "enthalpy", "setting": "human macroH2A1.1 domain [8]", "result": -17.8, "unit": "kcal/mol"}, {"measurement": "hydrolyzed to ADPr", "setting": "[9]", "result": "approximately 18%"}, {"measurement": "hydrolysis to AMP and acetylated ribose 5′-phosphate", "setting": "mNudT5", "result": "efficiently hydrolyze"}]}
